According to patent publication US20110305715A1, “ANTIBODIES TO 3-HYDROXYCOTININE AND METHODS OF USE THEREOF” (priority 2010, published 2011):
In brackets after ≈: the same amount, converted by molar mass.

How the values were obtained:
[1] = system: 3-Hydroxycotinine MAb 22H9C7; test: Competitive microplate ELISA (test principle #1) with immobilized 3HC MAb and 3HC-HRP tracer; settings: for Reactivity (%): calculated from IC50 values, 3-Hydroxycotinine MAb 22H9C7; for IC50: competitor vs 3HC-HRP for 3-Hydroxycotinine MAb 22H9C7
Experimental: (§1) Competitive microplate EIA for quantification of COT (A) and 3HC (B) by test principle #1. Different concentrations of COT or 3HC and fifteen other NIC metabolites were incubated with an immobilized COT MAb or 3HC MAb in the presence of a constant amount of COT-HRP or 3HC-HRP. The binding of the COT-HRP or 3HC-HRP to its corresponding MAb was detected by the reaction of the HRP with peroxidase substrate. The graph illustrates an inhibition curve that was formed with various concentrations of authentic COT (A) and 3HC (B). Apparent COT or 3HC concentrations are inversely related to the OD450 value.
As for the anti-cotinine monoclonal antibody, above, specificity and sensitivity of the anti-3-hydroxycotinine monoclonal antibody (3HC MAb) was determined in competitive microplate ELISA with 3HC and a battery of NIC metabolites and tobacco alkaloids using 3HC-HRP as tracer. […] Apparent 3HC concentrations are inversely related to the OD450 value.

Cotinine MAb 3B11A4 = test: Competitive microplate ELISA (test principle #1) with immobilized COT MAb and COT-HRP tracer; format: binding; settings: for Reactivity (%): calculated from IC50 values, Cotinine MAb 3B11A4; for IC50: competitor vs COT-HRP for Cotinine MAb 3B11A4
Experimental: as §1
Specificity and sensitivity of the anti-cotinine monoclonal antibody (COT MAb) were determined in competitive microplate ELISA with COT and a battery of NIC metabolites and tobacco alkaloids using COT-HRP as tracer. […] Apparent COT concentrations are inversely related to the OD450 value.

Row | SMILES | Reactivity (%) [1] | IC50 [1] | Reactivity (%) (Cotinine MAb 3B11A4) | IC50 (Cotinine MAb 3B11A4)
1 | CN1CCCC1c1ccc[n+]([O-])c1 (stereo not drawn) [Nicotine-N-Oxide, Nicotine-N-oxide] | <1% | >5,000 ng/mL | <1.5% | >5,000 ng/mL
2 | CN1C(=O)C(O)C[C@H]1c1cccnc1 (stereo partly drawn) [3-Hydroxycotinine] | 100% | 39.8 ng/mL (≈ 0.207 µM) | 1.86% | 3545.0 ng/mL (≈ 18.4 µM)
3 | c1cncc(C2=NCCCC2)c1 [Anabaseine] |  | >5,000 ng/mL | <1.5% | >5,000 ng/mL
4 | c1cncc(C2=NCCC2)c1 [Myosmine] |  | >5,000 ng/mL | <1.5% | >5,000 ng/mL
5 | c1cncc(-c2ccnc(-c3cccnc3)c2)c1 [Nicotelline] |  | >5,000 ng/mL | <1.5% | >5,000 ng/mL
6 | CN1CCCC1c1cccnc1 (stereo not drawn) [Nicotine] | <1% | >5,000 ng/mL | <1.5% | >5,000 ng/mL
7 | CN1CCC[C@H]1c1ccc[n+]([C@@H]2O[C@H](C(=O)[O-])[C@@H](O)[C@H](O)[C@H]2O)c1 [Nicotine-gluconuride, Nicotine-glucuronide] | <1% | >5,000 ng/mL | <1.5% | >5,000 ng/mL
8 | CN1C(=O)CC[C@@]1(O)c1cccnc1 [5-Hydroxycotinine] | <1% | >5,000 ng/mL | 4.39% | 1505.2 ng/mL (≈ 7.83 µM)
9 | CN1C(=O)CCC1c1ccc[n+](C2OC(C(=O)[O-])C(O)C(O)C2O)c1 (stereo not drawn) [Cotinine-gluconuride, cotinine-glucuronide] | <1% | >5,000 ng/mL | <1.5% | >5,000 ng/mL
10 | CN1C(=O)CC[C@H]1c1ccc[n+]([O-])c1 [Cotinine-N-Oxide, cotinine-N-oxide] | <1% | >5,000 ng/mL | <1.5% | >5,000 ng/mL
11 | c1cncc([C@@H]2CCCN2)c1 [Nornicotine] |  | >5,000 ng/mL | <1.5% | >5,000 ng/mL
12 | CN1C(=O)C(O[C@@H]2O[C@H](C(=O)O)[C@@H](O)[C@H](O)[C@H]2O)CC1c1cccnc1 (stereo partly drawn) [3-Hydroxycotinine-gluconuride, 3-hydroxycotinine-glucuronide] | <1% | >5,000 ng/mL | <1.5% | >5,000 ng/mL
13 | Cn1cccc1-c1cccnc1 [Nicotyrine] |  | >5,000 ng/mL | <1.5% | >5,000 ng/mL
14 | O=C1CCC(c2cccnc2)N1 (stereo not drawn) [Norcotinine] |  | >5,000 ng/mL | <1.5% | >5,000 ng/mL
15 | C1=CCC(c2cccnc2)NC1 (stereo not drawn) [Anatabine] |  | >5,000 ng/mL | <1.5% | >5,000 ng/mL
16 | CN1C(=O)CC[C@H]1c1cccnc1 [Cotinine] | <1% | >5,000 ng/mL | 100% | 66.1 ng/mL (≈ 0.375 µM)
